Experiments:
[1] = tested on: Cryopreserved hepatocytes from male rats (Sprague Dawley); experiment: In vitro metabolism study in rat hepatocytes in suspension (GC-MS); conditions: for Residual conc.: male, Sprague Dawley, rat, 4 h, 100 μM
Description: In order to study in vitro metabolism in rat hepatocytes, Lilial™ and compounds of the present invention may be incubated in the presence of rat hepatocytes in suspension. Reduction in the concentration of Lilial™ and the compounds of the present invention and formation of any of the corresponding benzoic acid derivatives may be analysed by GC-MS.
Cryopreserved hepatocytes from male rats (Sprague Dawley; Lifetechnologies) were defrozen, washed in Cyropreserved Hepatocytes Recovery Medium (CHRM; Lifetechnologies) and suspended in Williams E Medium (WEM; Lifetechnologies). Lilial™, or the compounds of the present invention (final concentration: 100 μM) were added to the cells (1×10^6 viable cells/ml) and suspensions were incubated up to 4 hours at 37° C. on a shaker in duplicate. Metabolism of testosterone was monitored as positive control. Decrease of the test compounds and formation of the corresponding benzoic acid derivative was determined by GC-MS analysis of methyl esters formed after derivatisation with trimethylsilyl diazomethane (Sigma-Aldrich) in methanol. The test compounds react with diazomethane yielding a methyl ketone which was used for the quantification of Lilial™ and the compound of formula (I). Metabolism was stopped with ice cold 1 M HCl, samples were extracted with tert-butyl methyl ether (MTBE) and analysed by GC-MS. Incubations containing testosterone as control were also stopped with ice cold 1 M HCl, centrifuged to separate the cells, filtrated and the decrease of testosterone analysed by LC-MS.

mice = conditions: mouse, in vivo; cited from earlier work
[2] = tested on: reproductive organs of dogs; conditions: dog, in vivo; cited from earlier work
primates = conditions: cited from earlier work
guinea-pigs = conditions: guinea pig, in vivo; cited from earlier work
[3] = tested on: reproductive organs of male rats; conditions: rat, in vivo; cited from earlier work

Cc1ccc(CCC=O)c(CC(C)C)c1
Residual conc. [1]: 0 µM

Cc1cc(CCC=O)cc(CC(C)C)c1 [Compound 1, 3-(3-Isobutyl-5-methylphenyl)propanal]
Residual conc. [1]: 1.5 µM

CC(C=O)Cc1ccc(C(C)(C)C)cc1 (stereo not drawn) [Lilial, 3-(4-tert-butylphenyl)-2-methylpropanal]
effects in toxicity studies (mice): No effects
Residual conc. [1]: 0 µM
toxic effects on the reproductive organs [2]: toxic effects
effects in toxicity studies (primates): No effects
effects in toxicity studies (guinea-pigs): No effects
toxic effects on the reproductive organs [3]: toxic effects

C[C@]12CC[C@H]3[C@@H](CCC4=CC(=O)CC[C@@]43C)[C@@H]1CC[C@@H]2O [testosterone]
decrease of testosterone (positive control) ([1]; rat hepatocytes, LC-MS): rapid decrease

Reference: patent US10443018B2, “Phenyl based compounds substituted with aldehyde moieties and their use in perfumery” (GIVAUDAN SA, priority 2014, dated 2019)
